{
  "source": "patent US20090068255A1",
  "about": "“USE OF MATRIX METALLOPROTEINASE INHIBITORS IN SKIN CARE” (priority 2007, published 2009)",
  "key": {"[1]": {"test_system": "female subjects 40-65 years of age with mild to moderate skin aging", "experiment": "Double-blind, placebo-controlled, randomized 16-week clinical study; dermatologist assessment of individual facial skin appearance parameters (scale 0-9)", "format": "in vivo, human", "conditions": "16 weeks", "method": "Photoaging of the skin typically manifests itself as worsening appearance of the skin, including an increased appearance of mottled hyperpigmentation, wrinkles, coarseness of skin, redness, and pores. In this study, the MMP inhibitor,\nwas evaluated in female subjects 40-65 years of age with mild to moderate skin aging to determine its benefit on the appearance of aging.\nThe study was designed as a double-blind, placebo-controlled, randomized 16-week clinical study to evaluate the benefit of the MMP inhibitor,\nin reducing the appearance of aging. Subjects enrolled in the study were between 40-65 years of age with mild to moderate skin age scores. A randomization table was used to determine which subjects would receive the study cream and which would receive the placebo cream. Subjects were instructed to apply the assigned cream to their face twice a day (once in the morning and once in the evening) after their face was washed and dried. A pea-sized drop of the test article was applied to each quadrant of the face to form a thin layer over the entire face. Follow-up visits were scheduled at 2, 4, 8, 12, and 16 weeks after the cream application was started.\nSubjects were instructed to apply the test or placebo cream to the face twice daily (once in the morning and once in the evening) over the entire 16 week study period. […]\nThe effect of the MMP inhibitor on the subject's skin was assessed using the Physician Global Assessment of facial skin appearance and the assessment of the following individual skin appearance parameters on a scale from 0 to 9: fine wrinkling, mottled hyperpigmentation, age spots, tactile roughness, coarse wrinkling, telangiectasia, pore size, sallow tone, and sag. […]\nA Physician Global Assessment of facial skin appearance using the Griffiths scale (0-8) was performed at all study visits. […] An assessment of individual skin parameters including fine wrinkling, mottled hyperpigmentation, age spots, tactile roughness, coarse wrinkling, redness, pore size, sollowness, and sag was scored on a scale from 0-9 at all study visits based on the following table: […]"}, "[2]": {"test_system": "female subjects 40-65 years of age with mild to moderate skin aging", "experiment": "Profilometry of silicone replicas of the crow's feet area in the 16-week clinical study", "format": "in vivo, human", "conditions": "replicas at day 0, week 8, week 16, p<0.05", "method": "The effect of the MMP inhibitor on the subject's skin was assessed using the Physician Global Assessment of facial skin appearance and the assessment of the following individual skin appearance parameters on a scale from 0 to 9: fine wrinkling, mottled hyperpigmentation, age spots, tactile roughness, coarse wrinkling, telangiectasia, pore size, sallow tone, and sag. The cosmetic appearance of telangiectasia may be perceived as increased facial redness. Other criteria were also used including profilometry of crow's feet region using silicone replicas.\nSilicone replicas of the crow's feet area (“profilometry”) were made at day 0, week 8, and week 16.\nFor the silicone replicas, the data used in the statistical analyses was the change from baseline. Within-treatment analysis of the skin replica parameters changes from baseline were evaluated using Student's t-test for paired data. Between-treatment analyses were conducted utilizing analysis of covariance with the baseline value as the covariate."}},
  "note": "Entries after “also recorded” stand apart in the source; their conditions may differ.",
  "data": [
    {"molecule": "O=C(NCc1ccc(-c2ccccc2)cc1)c1occc(=O)c1O", "note": "[MMP inhibitor]", "values": [
      {"measurement": "appearance of telangiectasia (redness), change from baseline relative to the placebo formulation", "setting": "[1]; cream of Example 27 (0.20% MMP inhibitor) applied to the face twice daily, p<0.05 vs placebo", "result": "reduce the appearance of telangiectasia"},
      {"measurement": "appearance of pore size, active vs placebo group", "setting": "[1]; cream of Example 27 applied to the face twice daily, Proc GLM time x treatment interaction p-value 0.02", "result": "improved appearance; also recorded: trending toward improvement"},
      {"measurement": "appearance of coarse wrinkles, active vs placebo group", "setting": "[1]; cream of Example 27 applied to the face twice daily, Proc GLM time x treatment interaction p-value 0.06", "result": "improved appearance of coarse wrinkles; also recorded: trending toward improvement"},
      {"measurement": "coarse wrinkle depth and roughness by profilometry of silicone replica, treatment vs placebo group", "setting": "[2]", "result": "significant improvement; also recorded: consistent with the improvement of coarse wrinkle scores"}
    ]}
  ]
}
